The values below come from PubChem BioAssay AID1645868 (Buhrlage Lab, Dana-Farber Cancer Institute and Novartis …, 2021).

The target in this assay is OTU domain-containing protein 3 (Homo sapiens) (UniProt Q5T2D3). As to the kind of experiment: Validation of screening hits, potency titration, in vitro enzymatic, OTU domain-containing protein 3 DUB inhibitors (AID 1645868). Conditions: purified OTUD3, ubiquitin-rhodamine cleavage fluorescence, 2 h.

Activity calls are given as the source filed them.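 The calls were made as follows: active = maximal percent inhibition of the deubiquitinase OTUD3 of at least 30% across the tested doses; inactive = the rest.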 Some results are limits rather than exact numbers.

OTU domain-containing protein 3 (Homo sapiens), sequence (Q5T2D3 whole entry, looked up, the tested form may be a part): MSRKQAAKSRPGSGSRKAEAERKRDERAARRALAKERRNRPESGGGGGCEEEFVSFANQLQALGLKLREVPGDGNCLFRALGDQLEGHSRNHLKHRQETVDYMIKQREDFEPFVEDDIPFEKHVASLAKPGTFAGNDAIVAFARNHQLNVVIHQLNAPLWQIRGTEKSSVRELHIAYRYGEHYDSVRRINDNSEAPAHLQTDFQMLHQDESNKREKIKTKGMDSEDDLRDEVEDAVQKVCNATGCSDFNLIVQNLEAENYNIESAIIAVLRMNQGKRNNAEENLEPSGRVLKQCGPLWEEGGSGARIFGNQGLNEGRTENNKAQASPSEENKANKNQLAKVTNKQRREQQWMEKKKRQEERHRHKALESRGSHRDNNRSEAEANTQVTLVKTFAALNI

`C=C(NC(=O)C(=C)NC(=O)c1csc(C2=N[C@@H]3c4csc(n4)[C@H]4NC(=O)c5csc(n5)[C@H]([C@](C)(O)[C@@H](C)O)NC(=O)C5CSC(=N5)/C(=C/C)NC(=O)C([C@@H](C)O)NC(=O)c5csc(n5)[C@]3(CC2)NC(=O)[C@H](C)NC(=O)C(=C)NC(=O)[C@H](C)NC(=O)C([C@@H](C)CC)NC2C=Cc3c(C(C)O)cc(nc3[C@H]2O)C(=O)OC4C)n1)C(N)=O` (some centres undefined): the IC50 is > 50 µM (inactive). The result for `Cc1c(-c2nc(-c3ccccc3Cl)no2)nnn1-c1cccc(F)c1` reads > 50 µM (inactive); that for `O=C(Nc1cccc(F)c1)c1ncoc1-c1ccco1`, > 50 µM (inactive); that for `Cc1ccc(CSC2=NS(=O)(=O)c3ccccc3N2)cc1`, > 50 µM (inactive). The result for `CN(C)c1ccc(C2CC(c3c(O)n(C)c(=O)[nH]c3=O)=Nc3ccccc3S2)cc1` (centres undefined) reads > 50 µM (inactive); that for `O=c1[nH]c2ccccc2cc1CN(Cc1ccco1)S(=O)(=O)c1ccc(F)cc1`, > 50 µM (inactive); that for `COc1ccc(NC(=O)c2nnn(-c3ccccc3C)c2C)cc1OC`, > 50 µM (inactive). The result for `N#C/C(=C/c1sc(N2CCOCC2)nc1-c1ccccc1)c1ccccn1` reads > 50 µM (inactive).

In the case of `COc1ccc(CC(=O)Nc2cccc(-c3nc4ncccc4o3)c2)cc1OC`, the IC50 is > 50 µM (inactive). The result for `COc1ccc(C(=O)Nc2cc(-c3ccccn3)no2)cn1` reads > 50 µM (inactive); that for `NS(=O)(=O)c1cc(C(=O)OCC(=O)NC2CCCc3ccccc32)ccc1Cl` (centres undefined), 49 µM; that for `COc1ccc(Cl)cc1NC(=O)Cn1c(=O)cc(C)c2c(C)nn(-c3ccccc3)c21`, 44.3 µM.

For the compound `Cn1c(CCNC(=O)c2[nH]nc3c2CCc2ccccc2-3)nc2ccccc21`, the IC50 is 29.3 µM. The result for `COc1ccc(OC)c(NC(=O)Cn2c(=O)n(CC3CCC(C(=O)NCCc4ccccc4)CC3)c(=O)c3ccccc32)c1` (centres undefined) reads 31.3 µM; that for `COc1cccc(CNC(=O)c2ccc3c(c2)NC(=O)C2CCCN32)c1OC` (centres undefined), > 50 µM (inactive); that for `CN(Cc1ccccc1)S(=O)(=O)c1ccc(S(=O)(=O)N2CCN(C(=O)c3cccnc3)CC2)cc1`, > 50 µM (inactive).

In the case of `CC(C)OC(=O)c1cc2c(ccn2-c2ccc(F)cc2)n1CC(=O)NC1CCCCC1`, the IC50 was > 50 µM (inactive). For the compound `CC(C)(C)c1cc(C[C@@H]2C[C@H](NC(=O)N3CCOCC3)C2(C)C)no1`, the IC50 is > 50 µM (inactive).

As to `COc1cc(Cl)c(C)cc1NC(=O)Cn1c(=O)n(CC(=O)NCc2ccco2)c(=O)c2ccccc21`, the IC50 was > 50 µM (inactive).

For the compound `O=C(OCc1ccc(F)cc1)c1ccc2ccccc2n1`, the IC50 is > 50 µM (inactive). To `Nc1c(C(=O)NCc2ccc3c(c2)OCO3)nnn1Cc1ccc(Br)cc1F` belongs 19.7 µM; to `Cc1c(C)n(-c2ccc(Br)cn2)c2ncnc(NCCCO)c12`, > 50 µM (inactive). Consider `CC(C)Cc1nc2sc3c(NCCN4CCOCC4)ncnc3c2c2c1CCC2`, for which the IC50 is > 50 µM (inactive). On to `O=C(NCc1ccc(Br)cc1)c1ccc(-c2cccnc2)nc1`, for which the IC50 is > 50 µM (inactive). To `O=C(COc1nc2ccccc2nc1N1CCOCC1)Nc1cccc(S(=O)(=O)N2CCCCC2)c1` belongs > 50 µM (inactive); to `O=C(CN1CCCc2ccccc21)Nc1ccc(N2CCOCC2)cc1`, > 50 µM (inactive). The result for `c1csc(CCN2CCc3nc4cccnc4cc3C2)c1` reads > 50 µM (inactive); that for `CN(c1ccccc1)c1nc(=O)n(CC(=O)Nc2ccc3c(c2)OCCO3)c2ccccc12`, > 50 µM (inactive). To `COc1cccc(N2CCN(C(=O)C3CCN(c4nc(NC(C)=O)ns4)CC3)CC2)c1` belongs > 50 µM (inactive); to `COc1cc(C#N)c(NC(=NCc2ccc(F)cc2)SC)cc1OC`, 49 µM; to `Cc1ccccc1-c1noc(-c2ccccc2OCC(=O)NC(C)C)n1`, > 50 µM (inactive). In the case of `Cc1ccc(NCc2cc3c(C(C)(C)C)nn(-c4ccc(Cl)cc4)c3[nH]c2=O)cc1`, the half-maximal inhibitory concentration (IC50) is 33.5 µM. The result for `O=C(Nc1ccc2nccnc2c1)c1cccc(C(F)(F)F)c1` reads > 50 µM (inactive); that for `COc1ccc(NC(=O)c2nnn(-c3ccccc3)c2C)cc1OC`, > 50 µM (inactive). The result for `O=C(CCc1ccc(S(=O)(=O)N2CCOCC2)cc1)Nc1ccc2c(c1)OCCO2` reads > 50 µM (inactive).

Regarding `COc1ccc(Nc2ncc(C(=O)Nc3ccc(Oc4ccccc4)cc3)c3ccccc23)cc1`, the IC50 is > 50 µM (inactive). To `CSc1ncc(C(=O)NC(C)c2ccccc2)c(-c2ccccc2)n1` (centres undefined) belongs 22.1 µM. To `Cn1c(CN2CCCCCC2)nc2cc(NC(=O)c3ccccc3)ccc21` belongs > 50 µM (inactive); to `COc1ccc(-n2c(=O)c(CCC(=O)O)nc3ccccc32)cc1`, > 50 µM (inactive). As to `CC(=O)c1oc2nc3c(c(-c4ccc(Cl)cc4)c2c1N)CCc1ccccc1-3`, the IC50 was > 50 µM (inactive). On to `COc1ccc(-c2cc(N3CCC(NC(=O)c4ccccc4)C3)n[nH]2)cc1` (centres undefined), for which the IC50 was 18.4 µM. Regarding `CCCCn1c(=O)c(CCC(=O)OCC(=O)Nc2ccc3c(c2)OCCO3)nc2ccccc21`, the IC50 was > 50 µM (inactive).

As for `COc1cccc(-c2nc3cnccn3c2NCc2ccc3c(c2)OCO3)c1`, the IC50 is > 50 µM (inactive).

Consider `Cc1nc(SCC#N)c2oc3ccccc3c2n1`, for which the IC50 is > 50 µM (inactive).

As to `CCOC(=O)[C@@H]1[C@@H](c2ccccc2)CN2CCN(C(=O)c3cnccn3)C[C@H]12`, the IC50 is > 50 µM (inactive). The result for `Cc1noc(-c2ccc(N3CCCC(C(=O)NCc4ccc(F)cc4)C3)nc2)n1` (centres undefined) reads 32.2 µM; that for `O=[N+]([O-])c1ccc(NCC2COc3ccccc3O2)c(Cl)c1` (centres undefined), > 50 µM (inactive); that for `O=C(Cn1cncc(-c2nc(-c3ccccc3)cs2)c1=O)NC1CCCC1`, > 50 µM (inactive). Take `Cc1cc(NC(=O)c2cc(-c3cccnc3)n[nH]2)ccc1Br`: the 50% inhibitory concentration (IC50) is 12.2 µM. To `Cc1cccc(-n2nc(C)c3c2NC(=O)CC3C(=O)c2cc3ccccc3o2)c1` (centres undefined) belongs 32 µM; to `CNC(=O)c1cc2c(=O)n3cccc(C)c3nc2n1Cc1ccccc1`, > 50 µM (inactive).

`COc1ccc(NC(=O)Cn2cc(C(=O)c3ccc(C)cc3)c(=O)c3ccccc32)cc1`: the IC50 was 11.4 µM. For `CC(C)(C)N=C1Nc2ncccc2NC12CCCN(C(=O)c1ccccc1)C2` (centres undefined), the IC50 is > 50 µM (inactive). The result for `CC1CCN(S(=O)(=O)c2ccc3[nH]cc(C(=O)NCc4ccco4)c(=O)c3c2)CC1` reads > 50 µM (inactive). In the case of `COc1ccccc1OCC(=O)Nc1ccc2c(c1)CCC(=O)N2Cc1ccccc1`, the IC50 was > 50 µM (inactive). To `CCCCCCCCCC(CCCCCCCCCC(=O)O)O[C@H]1O[C@@H](COC(C)=O)[C@H](O)[C@@H](O)[C@H]1OC(=O)CC(=O)O` (some centres undefined) belongs 22.5 µM. Take `NS(=O)(=O)c1ccc(CNS(=O)(=O)c2ccc(-c3ccccn3)s2)cc1`: the IC50 was 24.7 µM.

Regarding `COc1ccc(OC)c(NC(=O)CS(=O)(=O)c2cn(CC(=O)N3CCC(C)CC3)c3ccccc23)c1`, the 50% inhibitory concentration (IC50) is 33.8 µM. For the compound `Cc1ccc(Cn2cc(-c3noc(-c4ccncc4)n3)nn2)cc1`, the IC50 is > 50 µM (inactive).

The IC50 is the point on the concentration scale where inhibition reaches its midpoint.
